Like-named read-outs stand apart in the source and are kept apart here. Numbered stars: 1 amine (or outer) side, 2 acyl side, 3 side chain; on linkers, the order of the positions; unused ones are H or OH. Bridge positions count the residues as written; N and C are the ends. Square brackets hold non-standard residues; d marks the D form. Peptide text beside a SMILES is read from it. * marks the point of attachment. C20 diacid = O=C(O)CCCCCCCCCCCCCCCCCCC(=O)*; γGlu = O=C(O)[C@H](CCC(=O)[*:2])N[*:1]; NMeI = CC[C@H](C)[C@H](NC)C(=O)O; Sar = CNCC(=O)O

As usually defined, the EC50 is the concentration needed to bring the measured effect to its halfway point.

For experiment [1], the target named is T1, human calcitonin receptor (hCTR2) (Homo sapiens, UniProt P30988).
T1 construct: expressed in transfected cells
T1 sequence (P30988 25-474): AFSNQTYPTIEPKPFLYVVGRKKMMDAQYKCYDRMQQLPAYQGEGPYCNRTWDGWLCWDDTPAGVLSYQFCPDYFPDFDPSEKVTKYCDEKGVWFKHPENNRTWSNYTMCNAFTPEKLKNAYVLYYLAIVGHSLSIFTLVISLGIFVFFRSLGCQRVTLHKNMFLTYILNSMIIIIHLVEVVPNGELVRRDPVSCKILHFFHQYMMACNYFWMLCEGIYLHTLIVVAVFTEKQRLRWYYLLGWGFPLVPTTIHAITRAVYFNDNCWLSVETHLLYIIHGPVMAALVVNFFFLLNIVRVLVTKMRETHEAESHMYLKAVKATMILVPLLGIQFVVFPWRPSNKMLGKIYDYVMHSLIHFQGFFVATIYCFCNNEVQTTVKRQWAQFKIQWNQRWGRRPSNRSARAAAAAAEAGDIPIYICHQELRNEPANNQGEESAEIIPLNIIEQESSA
The experiment can be described thus: hCTR2 assay: induction of cAMP (AlphaScreen cAMP Assay kit) in COS7 cells expressing hCTR2. It counts as cell-based. A digest of the protocol: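 Cells were seeded one day ahead, washed, then exposed to rising peptide concentrations for 15 min at 37° C in the presence of 100 µM IBMX. After lysis for 10 min at room temperature, cAMP was quantified by AlphaScreen and EC50 values derived by 4PL fitting.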
A general note: Alpha assays give light when donor and acceptor beads are brought close together.

In experiment [2] the target is T2, human amylin receptor 3 (hAMYR3) consisting of hCTR2 co-expressed with human Receptor Activity Modifying Protein 3 (hRAMP3) (Homo sapiens, UniProt O60896+P30988).
T2 construct: expressed in transfected cells
T2 sequence (P30988 25-474): T1 sequence (P30988 25-474)
T2 sequence (O60896 24-148 partner): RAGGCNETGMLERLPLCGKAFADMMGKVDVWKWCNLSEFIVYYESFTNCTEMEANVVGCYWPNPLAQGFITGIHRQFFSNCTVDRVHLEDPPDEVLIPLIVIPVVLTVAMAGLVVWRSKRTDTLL
The experiment can be described thus: hAMYR3 assay: induction of cAMP (AlphaScreen cAMP Assay kit) in COS7 cells expressing hAMYR3. It counts as cell-based. The text has this: The cell line COS7, originating from African Green Monkey kidney fibroblast cells, was used for establishment of the stable cell lines described below. The COS7 cellular background was used due to it being RAMP naive, and as such it provides the best available system for testing of the monomeric hCTR and different heterodimeric amylin receptor subtypes functionally generated by introduction of the individual RAMPs.
A cell line expressing the human amylin receptor 3 (hAMYR3) was generated in the COS7 cellular background as stable clones. In brief, hCTR2 (GI:4502547) and hRAMP3 (GI:118572586) were amplified by PCR using primers encoding terminal restriction sites for subcloning. The 5'-end primers additionally encoded a near Kozak consensus sequence to ensure efficient translation. The fidelity of the DNA encoding the receptor was confirmed by DNA sequencing. The PCR products encoding the receptor were subcloned into a proprietary tri-cistronic mammalian expression vector with RAMP3, hCTR2 and neomycin (G418) resistance marker. The mammalian expression vector encoding the receptor was transfected into COS7 cells by a standard liposome transfection method. 48 hours post-transfection, cells were seeded for limited dilution cloning and selected with 1 mg/ml G418 in the culture medium. After 3 weeks, surviving colonies of hAMY3R-expressing cells were picked, propagated and tested in the amylin efficacy assay as described in Example 3 below. The functional generation of the amylin receptor phenotype was verified in the efficacy assay by a left-shifted efficacy response to amylin relative to monomeric calcitonin receptor, and one hAMYR3-expressing clone was chosen for compound profiling.
In vitro activity of test peptides at the hCTR2 and hAMYR3 receptors was assessed by measuring the induction of cAMP following stimulation of the receptor by pramlintide or peptides of the invention using the AlphaScreen® cAMP Assay kit from Perkin-Elmer.
Briefly, COS7 cells expressing hCTR2 (see Example 2, above) were seeded at 30-40,000 cells per well in 96-well microtiter plates coated with 0.01 % poly-L-lysine, and grown for 1 day in culture in 100 µl growth medium [DMEM, 10% FCS, Penicillin (100 IU/ml), Streptomycin (100 µg/ml)]. On the day of analysis, growth medium was removed and the cells were washed once with 200 µl Tyrode buffer [Tyrode's Salts (9.6 g/l), 10 mM HEPES, pH 7.4]. Cells were incubated in 100 µl Tyrode buffer containing increasing concentrations of test peptides, 100 µM IBMX and 0.1% casein for 15 min at 37° C. The reaction was stopped by carefully decanting off the compound/buffer medium and replacing it with lysis/detection buffer (80 µl 0.1 % w/v BSA, 5 mM HEPES, 0.3 % v/v Tween-20 in deionized water). After incubation at room temperature for 10 min., the cAMP content of the resulting cell lysate was estimated according to the AlphaScreen® cAMP Assay manufacturer's instructions. EC50 values and relative efficacy values (in %) compared to reference peptide (Pramlintide) were estimated by computer-aided curve fitting using the 4-parameter logistic (4PL) non-linear model.
The in vitro activity results (expressed as EC50 values) for peptides of the invention and for Pramlintide (reference peptide) are summarized in Table 2, below.

The mark [3] stands for this setting: cAMP induction in COS7 cells expressing hCTR2, average of a minimum of 3 determinations, read-out: hCTR2 EC50.

For the compound `CC[C@H](C)[C@@H](C(=O)N[C@@H](CC(C)C)C(=O)N[C@@H](CO)C(=O)N[C@@H](CO)C(=O)N[C@H](C(=O)N[C@@H](CC(N)=O)C(=O)N[C@H](C(=O)NCC(=O)N[C@@H](CO)C(=O)N[C@@H](CC(N)=O)C(=O)N[C@H](C(=O)N[C@@H](CO)C(N)=O)[C@@H](C)O)C(C)C)[C@@H](C)O)N(C)C(=O)[C@H](C)NC(=O)CN(C)C(=O)[C@H](Cc1ccccc1)NC(=O)[C@H](CC(N)=O)NC(=O)[C@H](CC(N)=O)NC(=O)[C@H](CO)NC(=O)[C@H](CO)NC(=O)[C@H](CCCNC(=N)N)NC(=O)[C@H](Cc1c[nH]cn1)NC(=O)[C@H](CC(C)C)NC(=O)[C@H](Cc1ccccc1)NC(=O)[C@H](CCC(=O)O)NC(=O)[C@H](C)NC(=O)[C@H](CC(C)C)NC(=O)[C@H](CCCNC(=N)N)NC(=O)[C@H](CCC(N)=O)NC(=O)[C@@H](NC(=O)[C@H](C)NC(=O)[C@@H]1CSSC[C@H](NC(=O)[C@H](CCCNC(=N)N)NC(=O)CC[C@H](NC(=O)CCCCCCCCCCCCCCCCCCC(=O)O)C(=O)O)C(=O)N[C@@H](CC(N)=O)C(=O)N[C@@H]([C@@H](C)O)C(=O)N[C@@H](C)C(=O)N[C@@H]([C@@H](C)O)C(=O)N1)[C@@H](C)O` [Compound 116, [19CD]-isoGlu-RC()NTATC()ATQRLAEFLHRSSNNF-Gly(Me)-A-Ile(Me)-LSSTNVGSNTS-NH2] ({C20 diacid-γGlu}-RCNTATCATQRLAEFLHRSSNNF[Sar]A[NMeI]LSSTNVGSNTS-NH2; disulfide 2-7), the EC50 in experiment [1] was found to be 0.93 nM; in experiment [2], 1.6 nM.

`CC[C@H](C)[C@@H](C(=O)N[C@@H](CC(C)C)C(=O)N[C@@H](CO)C(=O)N[C@@H](CO)C(=O)N[C@H](C(=O)N[C@@H](CC(N)=O)C(=O)N[C@H](C(=O)NCC(=O)N[C@@H](CO)C(=O)N[C@@H](CC(N)=O)C(=O)N[C@H](C(=O)N[C@H](C(N)=O)[C@@H](C)O)[C@@H](C)O)C(C)C)[C@@H](C)O)N(C)C(=O)[C@H](C)NC(=O)CN(C)C(=O)[C@H](Cc1ccccc1)NC(=O)[C@H](CC(N)=O)NC(=O)[C@H](CC(N)=O)NC(=O)[C@H](CO)NC(=O)[C@H](CO)NC(=O)[C@H](CCCNC(=N)N)NC(=O)[C@H](Cc1c[nH]cn1)NC(=O)[C@H](CC(C)C)NC(=O)[C@H](Cc1ccccc1)NC(=O)[C@H](CCC(=O)O)NC(=O)[C@H](C)NC(=O)[C@H](CC(C)C)NC(=O)[C@H](CCCNC(=N)N)NC(=O)[C@H](CCC(N)=O)NC(=O)[C@@H](NC(=O)[C@H](C)NC(=O)[C@@H]1CSSC[C@H](NC(=O)[C@H](CCCNC(=N)N)NC(=O)CC[C@H](NC(=O)CCCCCCCCCCCCCCCCCCC(=O)O)C(=O)O)C(=O)N[C@@H](CC(N)=O)C(=O)N[C@@H]([C@@H](C)O)C(=O)N[C@@H](C)C(=O)N[C@@H]([C@@H](C)O)C(=O)N1)[C@@H](C)O` [Compound 117, [19CD]-isoGlu-RC()NTATC()ATQRLAEFLHRSSNNF-Gly(Me)-A-Ile(Me)-LSSTNVGSNTT-NH2] ({C20 diacid-γGlu}-RCNTATCATQRLAEFLHRSSNNF[Sar]A[NMeI]LSSTNVGSNTT-NH2; disulfide 2-7): the EC50 turned out to be 0.47 nM in experiment [1] and 8.2 nM in experiment [2].

Consider `CC[C@H](C)[C@@H](C(=O)N[C@@H](CC(C)C)C(=O)N[C@@H](CO)C(=O)N[C@@H](CO)C(=O)N[C@H](C(=O)N[C@@H](CCC(=O)O)C(=O)N[C@H](C(=O)NCC(=O)N[C@@H](CO)C(=O)N[C@@H](CCC(=O)O)C(=O)N[C@H](C(=O)N1CCC[C@H]1C(N)=O)[C@@H](C)O)C(C)C)[C@@H](C)O)N(C)C(=O)[C@H](C)NC(=O)CN(C)C(=O)[C@H](Cc1ccccc1)NC(=O)[C@H](CO)NC(=O)[C@H](CO)NC(=O)[C@H](CO)NC(=O)[C@H](CO)NC(=O)[C@H](CCCNC(=N)N)NC(=O)[C@H](Cc1c[nH]cn1)NC(=O)[C@H](CC(C)C)NC(=O)[C@H](Cc1ccccc1)NC(=O)[C@H](CCC(=O)O)NC(=O)[C@H](C)NC(=O)[C@H](CC(C)C)NC(=O)[C@H](CCCNC(=N)N)NC(=O)[C@H](CCC(N)=O)NC(=O)[C@@H](NC(=O)[C@H](C)NC(=O)[C@@H]1CSSC[C@H](NC(=O)[C@H](CCCNC(=N)N)NC(=O)CC[C@H](NC(=O)CCCCCCCCCCCCCCCCCCC(=O)O)C(=O)O)C(=O)N[C@@H](CCC(=O)O)C(=O)N[C@@H]([C@@H](C)O)C(=O)N[C@@H](C)C(=O)N[C@@H]([C@@H](C)O)C(=O)N1)[C@@H](C)O` [Compound 128, [19CD]-isoGlu-RC()ETATC()ATQRLAEFLHRSSSSF-Gly(Me)-A-Ile(Me)-LSSTEVGSETP-NH2] ({C20 diacid-γGlu}-RCETATCATQRLAEFLHRSSSSF[Sar]A[NMeI]LSSTEVGSETP-NH2; disulfide 2-7), for which the EC50 turned out to be 0.28 nM in experiment [1] (setting [3]) and 0.45 nM in experiment [2] (cAMP induction in COS7 cells expressing hAMYR3, average of a minimum of 3 determinations, read-out: hAMY R3 EC50).

Consider `CC[C@H](C)[C@@H](C(=O)N[C@@H](CC(C)C)C(=O)N[C@@H](CO)C(=O)N[C@@H](CO)C(=O)N[C@H](C(=O)N[C@@H](CCC(=O)O)C(=O)N[C@H](C(=O)NCC(=O)N[C@@H](CO)C(=O)N[C@@H](CCC(=O)O)C(=O)N[C@H](C(=O)N1CCC[C@H]1C(N)=O)[C@@H](C)O)C(C)C)[C@@H](C)O)N(C)C(=O)[C@H](C)NC(=O)CN(C)C(=O)[C@H](Cc1ccccc1)NC(=O)[C@H](CO)NC(=O)[C@H](CO)NC(=O)[C@H](CO)NC(=O)[C@H](CO)NC(=O)[C@H](CCCNC(=N)N)NC(=O)[C@H](Cc1c[nH]cn1)NC(=O)[C@H](CC(C)C)NC(=O)[C@H](Cc1ccccc1)NC(=O)[C@H](CCC(=O)O)NC(=O)[C@H](C)NC(=O)[C@H](CC(C)C)NC(=O)[C@H](CCCNC(=N)N)NC(=O)[C@H](CO)NC(=O)[C@@H](NC(=O)[C@H](C)NC(=O)[C@@H]1CSSC[C@H](NC(=O)[C@H](CCCNC(=N)N)NC(=O)CC[C@H](NC(=O)CCCCCCCCCCCCCCCCCCC(=O)O)C(=O)O)C(=O)N2CCC[C@H]2C(=O)N[C@@H]([C@@H](C)O)C(=O)N[C@@H](C)C(=O)N[C@@H]([C@@H](C)O)C(=O)N1)[C@@H](C)O` [Compound 140, [19CD]-isoGlu-RC()PTATC()ATSRLAEFLHRSSSSF-Gly(Me)-A-Ile(Me)-LSSTEVGSETP-NH2] ({C20 diacid-γGlu}-RCPTATCATSRLAEFLHRSSSSF[Sar]A[NMeI]LSSTEVGSETP-NH2; disulfide 2-7), for which the EC50 was 0.098 nM in experiment [1] (setting [3]) and 0.18 nM in experiment [2].

These data come from EP3046573B1, “AMYLIN ANALOGUES” (Zealand Pharma A/S, priority 2013, dated 2015).
